Test results: patent publication US20260224758A1, “ALPHA-SYNUCLEIN BINDERS AND METHODS OF USE” (Merck Sharp & Dohme LLC, priority 2023, published 2026)
Read-outs that look alike come from different tables or passages of the source.

Legend:
[1] = molecular target: T1, triton-extracted alpha-synuclein from PD Tissue (Homo sapiens, UniProt P37840); assay: Alpha-synuclein tissue homogenate binding assay (Assay 1), displacement of [^3H]-1000; conditions: for Selectivity ratio (Assay 2/Assay 1): Aβ Tissue Ki / α-synuclein Tissue Ki; for Ki: read-out: α-synuclein Tissue Ki (Assay 1)
T1 construct: tissue Analytic Biological Services Inc; host or cells: human PD temporal cortex grey matter, Triton X-100 insoluble pellet

[2] = molecular target: aggregated beta amyloid in AD tissue (Homo sapiens, UniProt P05067); assay: Competitive radioligand binding to pathological aggregated beta amyloid in AD tissue (Assay 2), displacement of [^3H]-105; conditions: Aβ-rich AD frontal cortex homogenate, [^3H]-105, Kd 11.0 nM
Procedure: Frozen human brain samples of Alzheimer's disease (AD) were purchased from Analytic Biological Services Inc. The samples were post-mortem tissue from donors with clinical diagnosis of AD and much of the white matter was dissected out of the frontal cortex in order to enrich the tissue preparations for gray matter. Brain homogenates of gray matter enriched frontal cortex were prepared by homogenizing the tissue in ice cold Phosphate Buffered Saline (PBS), pH 7.4 at 80 mg wet weight tissue per 1 ml for 45 seconds at 4° C., on setting 16 of Polytron. The homogenate was further diluted with ice cold PBS to 30 mg wet weight tissue per 1 ml and homogenized for an additional minute as described above. Homogenates were aliquoted in 5 ml/tube and stored at −70° C. until use.
Radioligand [^3H]-105, prepared as described in ACS Med. Chem. Lett., Vol. 2, pages 498-502, was used in this assay.
For Assay 2 unlabeled test compounds were dissolved in DMSO at 10 mM. Dilutions of tests compounds to various concentrations were made in 100% DMSO at 1000× final assay concentration and 0.225 μl aliquots were dispensed into assay plates. Brain homogenates were diluted to 0.5 mg/ml from original 30 mg/ml volume in Assay Buffer, and 200 μl were added to the assay plate for a final concentration of 100 ug wet weight/assay well. [^3H]-105 was prepared at 10× final concentration in Assay Buffer plus 20% DMSO and 25 μl was added to the assay plate for final assay concentration of 3.0 nM. The plates were incubated at 37° C. for 90 minutes. Unbound and bound ligand were separated by filtration of bound onto GF/B filter plates (pre-treated for 30 min with 0.1% PEI) using a Packard Filtermate and washing away unbound with 2.5 mil ice cold 5 mM Tris at pH 7.4. Filter plates were dried for 1 hr at 57° C. and 50 μl Microscint was added to each well of the plate. The plates were counted for ^3H cpm for 1 min per well using PerkinElmer TopCount.

[3] = insoluble fraction of PD brain homogenate, [^3H]-1000 3.0 nM, Kd 0.90 nM

Sequence of aggregated beta amyloid in AD tissue (P05067 672-711 limits assumed): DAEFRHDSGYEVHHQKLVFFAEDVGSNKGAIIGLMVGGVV

Structure (SMILES): OC[C@H]1CN(c2ccc(F)nc2)CCN1c1ncc(/C=C/c2ccc(-n3ccnc3)nc2)cn1 [Example 33, (R,E)-(1-(5-(2-(6-(1H-imidazol-1-yl)pyridin-3-yl)vinyl)pyrimidin-2-yl)-4-(6-fluoropyridin-3-yl)piperazin-2-yl)methanol]
- Selectivity ratio (Assay 2/Assay 1) [1]: 6667
- Ki [1]: 1.8 nM
- Ki [2]: ≥ 12000 nM

Structure (SMILES): FCCOC[C@@H]1CN(c2ncc(C#Cc3ccc(-c4cnco4)nc3)cn2)CCN1c1ncncn1 [Example 62, (S)-5-(5-((2-(3-((2-fluoroethoxy)methyl)-4-(1,3,5-triazin-2-yl)piperazin-1-yl)pyrimidin-5-yl)ethynyl)pyridin-2-yl)oxazole]
- Selectivity ratio (Assay 2/Assay 1) [1]: 811
- Ki [1, 3]: 1.48 nM
- Ki [2]: ≥ 1200 nM

Structure (SMILES): COC[C@H]1CN(c2ncc(C#Cc3ccc(-n4ccnc4)nc3)cn2)CCN1c1cncc(F)n1 [Example 69, (R)-5-((6-(1H-imidazol-1-yl)pyridin-3-yl)ethynyl)-2-(4-(6-fluoropyrazin-2-yl)-3-(methoxymethyl)piperazin-1-yl)pyrimidine]
- Selectivity ratio (Assay 2/Assay 1) [1]: 183
- Ki [1, 3]: 6.57 nM
- Ki [2]: ≥ 1200 nM

Structure (SMILES): COC[C@H]1CN(c2ncc(C#Cc3ccc(-n4ccnc4)nc3)cn2)CCN1c1ccnc(F)n1 [Example 61, (R)-4-(4-(5-((6-(1H-imidazol-1-yl)pyridin-3-yl)ethynyl)pyrimidin-2-yl)-2-(methoxymethyl)piperazin-1-yl)-2-fluoropyrimidine]
- Selectivity ratio (Assay 2/Assay 1) [1]: 805
- Ki [1, 3]: 1.49 nM
- Ki [2]: ≥ 1200 nM

Structure (SMILES): FCCCOC[C@H]1CN(c2ncc(C#Cc3ccc(-c4cnco4)nc3)cn2)CCN1c1ncncn1 [Example 74, (R)-5-(5-((2-(3-((3-fluoropropoxy)methyl)-4-(1,3,5-triazin-2-yl)piperazin-1-yl)pyrimidin-5-yl)ethynyl)pyridin-2-yl)oxazole]
- Selectivity ratio (Assay 2/Assay 1) [1]: 618
- Ki [1, 3]: 1.94 nM
- Ki [2]: ≥ 1200 nM

Structure (SMILES): COC[C@H]1CN(c2cnc(C#Cc3ccc(-n4ccnc4)nc3)c(F)n2)CCN1c1ncccn1 [Example 57, (R)-2-(4-(5-((6-(1H-imidazol-1-yl)pyridin-3-yl)ethynyl)-6-fluoropyrazin-2-yl)-2-(methoxymethyl)piperazin-1-yl)pyrimidine]
- Selectivity ratio (Assay 2/Assay 1) [1]: 7
- Ki [1, 3]: 4.41 nM
- Ki [2]: 32 nM

Structure (SMILES): OC[C@H]1CN(c2cnccn2)CCN1c1ncc(/C=C/c2ccc(-n3ccnc3)nc2)cn1 [Example 23, (R,E)-(1-(5-(2-(6-(1H-imidazol-1-yl)pyridin-3-yl)vinyl)pyrimidin-2-yl)-4-(pyrazin-2-yl)piperazin-2-yl)methanol]
- Selectivity ratio (Assay 2/Assay 1) [1]: 10000
- Ki [1]: 1.2 nM
- Ki [2]: ≥ 12000 nM

Structure (SMILES): COC[C@H]1CN(c2ncc(C#Cc3ccc(-n4ccnc4)nc3)cn2)CCN1c1nccc(F)n1 [Example 60, (R)-2-(4-(5-((6-(1H-imidazol-1-yl)pyridin-3-yl)ethynyl)pyrimidin-2-yl)-2-(methoxymethyl)piperazin-1-yl)-4-fluoropyrimidine]
- Selectivity ratio (Assay 2/Assay 1) [1]: 538
- Ki [1, 3]: 2.23 nM
- Ki [2]: ≥ 1200 nM

Structure (SMILES): COC[C@H]1CN(c2ccccn2)CCN1c1ncc(/C=C/c2ccc(-c3ncco3)nc2)cn1 [Example 20, (R,E)-2-(5-(2-(2-(2-(methoxymethyl)-4-(pyridin-2-yl)piperazin-1-yl)pyrimidin-5-yl)vinyl)pyridin-2-yl)oxazole]
- Selectivity ratio (Assay 2/Assay 1) [1]: 7059
- Ki [1, 3]: 1.7 nM
- Ki [2]: ≥ 12000 nM

Structure (SMILES): COC[C@H]1CN(c2ncc(C#Cc3ccc(-c4cnn(CCOCCF)c4)nc3)cn2)CCN1c1ncncn1 [Example 77, (R)-2-(4-(5-((6-(1-(2-(2-fluoroethoxy)ethyl)-1H-pyrazol-4-yl)pyridin-3-yl)ethynyl)pyrimidin-2-yl)-2-(methoxymethyl)piperazin-1-yl)-1,3,5-triazine]
- Selectivity ratio (Assay 2/Assay 1) [1]: 705
- Ki [1, 3]: 1.7 nM
- Ki [2]: ≥ 1200 nM

Structure (SMILES): Cc1cn(-c2ccc(/C=C/c3cnc(N4CCN(c5ncccn5)[C@@H](COCCF)C4)nc3)cn2)cn1 [Example 40, (R,E)-2-(3-((2-fluoroethoxy)methyl)-4-(pyrimidin-2-yl)piperazin-1-yl)-5-(2-(6-(4-methyl-1H-imidazol-1-yl)pyridin-3-yl)vinyl)pyrimidine]
- Selectivity ratio (Assay 2/Assay 1) [1]: 2857
- Ki [1]: 0.42 nM
- Ki [2]: ≥ 1200 nM

Structure (SMILES): FCCOCCOC[C@H]1CN(c2ncc(/C=C/c3ccc(-c4cnco4)nc3)cn2)CCN1c1ncncn1 [Example 38, (R,E)-5-(5-(2-(2-(3-((2-(2-fluoroethoxy)ethoxy)methyl)-4-(1,3,5-triazin-2-yl)piperazin-1-yl)pyrimidin-5-yl)vinyl)pyridin-2-yl)oxazole]
- Selectivity ratio (Assay 2/Assay 1) [1]: 600
- Ki [1, 3]: 2 nM
- Ki [2]: ≥ 1200 nM

Structure (SMILES): FCCOC[C@H]1CN(c2ncc(/C=C/c3ccc(-c4cnco4)nc3)cn2)CCN1c1ncncn1 [Example 41, (R,E)-5-(5-(2-(2-(3-((2-fluoroethoxy)methyl)-4-(1,3,5-triazin-2-yl)piperazin-1-yl)pyrimidin-5-yl)vinyl)pyridin-2-yl)oxazole]
- Selectivity ratio (Assay 2/Assay 1) [1]: 1500
- Ki [1, 3]: 0.8 nM
- Ki [2]: ≥ 1200 nM

Structure (SMILES): COC[C@H]1CN(c2ccc(F)nc2)CCN1c1ncc(/C=C/c2ccc(-n3ccnc3)nc2)cn1 [Example 32, (R,E)-5-(2-(6-(1H-imidazol-1-yl)pyridin-3-yl)vinyl)-2-(4-(6-fluoropyridin-3-yl)-2-(methoxymethyl)piperazin-1-yl)pyrimidine]
- Selectivity ratio (Assay 2/Assay 1) [1]: 13333
- Ki [1, 3]: 0.9 nM
- Ki [2]: ≥ 12000 nM

Structure (SMILES): OC[C@H]1CN(c2cc(F)ncn2)CCN1c1ncc(/C=C/c2ccc(-n3ccnc3)nc2)cn1 [Example 15, (R,E)-(1-(5-(2-(6-(1H-imidazol-1-yl)pyridin-3-yl)vinyl)pyrimidin-2-yl)-4-(6-fluoropyrimidin-4-yl)piperazin-2-yl)methanol]
- Selectivity ratio (Assay 2/Assay 1) [1]: 12000
- Ki [1, 3]: 1 nM
- Ki [2]: ≥ 12000 nM

Structure (SMILES): COC[C@H]1CN(c2ncc(C#Cc3ccc(-c4cnco4)nc3)cn2)CCN1c1ncc(OCCF)cn1 [Example 66, (R)-5-(5-((2-(4-(5-(2-fluoroethoxy)pyrimidin-2-yl)-3-(methoxymethyl)piperazin-1-yl)pyrimidin-5-yl)ethynyl)pyridin-2-yl)oxazole]
- Selectivity ratio (Assay 2/Assay 1) [1]: 706
- Ki [1, 3]: 1.7 nM
- Ki [2]: ≥ 1200 nM

Structure (SMILES): COC[C@H]1CN(c2ncc(/C=C/c3ccc(-n4ccnc4)nc3)cn2)CCN1c1ccccn1 [Example 22, (R,E)-5-(2-(6-(1H-imidazol-1-yl)pyridin-3-yl)vinyl)-2-(3-(methoxymethyl)-4-(pyridin-2-yl)piperazin-1-yl)pyrimidine]
- Selectivity ratio (Assay 2/Assay 1) [1]: 1857
- Ki [1, 3]: 0.7 nM
- Ki [2]: 1300 nM

Structure (SMILES): COC[C@H]1CN(c2ccccn2)CCN1c1ncc(/C=C/c2ccc(-c3cnco3)nc2)cn1 [Example 26, (R,E)-5-(5-(2-(2-(2-(methoxymethyl)-4-(pyridin-2-yl)piperazin-1-yl)pyrimidin-5-yl)vinyl)pyridin-2-yl)oxazole]
- Selectivity ratio (Assay 2/Assay 1) [1]: 3871
- Ki [1, 3]: 3.1 nM
- Ki [2]: ≥ 12000 nM

Structure (SMILES): FCCOC[C@H]1CN(c2ncc(/C=C/c3ccc(-c4cnco4)nc3)cn2)CCN1c1ncccn1 [Example 36, (R,E)-5-(5-(2-(2-(3-((2-fluoroethoxy)methyl)-4-(pyrimidin-2-yl)piperazin-1-yl)pyrimidin-5-yl)vinyl)pyridin-2-yl)oxazole]
- Selectivity ratio (Assay 2/Assay 1) [1]: 12000
- Ki [1, 3]: 0.94 nM
- Ki [2]: ≥ 12000 nM

Structure (SMILES): FCCOC[C@H]1CN(c2ncccn2)CCN1c1ncc(/C=C/c2ccc(-n3ccnc3)nc2)cn1 [Example 30, (R,E)-5-(2-(6-(1H-imidazol-1-yl)pyridin-3-yl)vinyl)-2-(2-((2-fluoroethoxy)methyl)-4-(pyrimidin-2-yl)piperazin-1-yl)pyrimidine]
- Selectivity ratio (Assay 2/Assay 1) [1]: 12000
- Ki [1, 3]: 1 nM
- Ki [2]: ≥ 12000 nM

Structure (SMILES): COC[C@H]1CN(c2cc(F)ncn2)CCN1c1ncc(/C=C/c2ccc(-n3ccnc3)nc2)cn1 [Example 13, (R,E)-5-(2-(6-(1H-imidazol-1-yl)pyridin-3-yl)vinyl)-2-(4-(6-fluoropyrimidin-4-yl)-2-(methoxymethyl)piperazin-1-yl)pyrimidine]
- Selectivity ratio (Assay 2/Assay 1) [1]: 12000
- Ki [1, 3]: 1 nM
- Ki [2]: ≥ 12000 nM

Structure (SMILES): OC[C@H]1CN(c2ccncn2)CCN1c1ncc(/C=C/c2ccc(-n3ccnc3)nc2)cn1 [Example 24, (R,E)-(1-(5-(2-(6-(1H-imidazol-1-yl)pyridin-3-yl)vinyl)pyrimidin-2-yl)-4-(pyrimidin-4-yl)piperazin-2-yl)methanol]
- Selectivity ratio (Assay 2/Assay 1) [1]: 240
- Ki [1, 3]: 0.5 nM
- Ki [2]: 120 nM

Structure (SMILES): COC[C@H]1CN(c2ncc(C#Cc3ccc(N4CC[C@H](F)C4)nc3)cn2)CCN1c1ncccn1 [Example 72, 5-((6-((S)-3-fluoropyrrolidin-1-yl)pyridin-3-yl)ethynyl)-2-((R)-3-(methoxymethyl)-4-(pyrimidin-2-yl)piperazin-1-yl)pyrimidine]
- Selectivity ratio (Assay 2/Assay 1) [1]: 617
- Ki [1, 3]: 1.94 nM
- Ki [2]: ≥ 1200 nM

Structure (SMILES): COCCOC[C@H]1CN(c2ccccn2)CCN1c1ncc(/C=C/c2ccc(-n3ccnc3)nc2)cn1 [Example 6, (R,E)-5-(2-(6-(1H-imidazol-1-yl)pyridin-3-yl)vinyl)-2-(2-((2-methoxyethoxy)methyl)-4-(pyridin-2-yl)piperazin-1-yl)pyrimidine]
- Selectivity ratio (Assay 2/Assay 1) [1]: 100
- Ki [1, 3]: 1.8 nM
- Ki [2]: 180 nM

Structure (SMILES): COC[C@H]1CN(c2ncc(C#Cc3ccc(-c4cnco4)nc3)cn2)CCN1c1ccnc(F)c1 [Example 64, (R)-5-(5-((2-(4-(2-fluoropyridin-4-yl)-3-(methoxymethyl)piperazin-1-yl)pyrimidin-5-yl)ethynyl)pyridin-2-yl)oxazole]
- Selectivity ratio (Assay 2/Assay 1) [1]: 442
- Ki [1, 3]: 2.71 nM
- Ki [2]: ≥ 1200 nM
